Assay results as given in the supplement of paper PMC11003180.

What was measured:
Assay in all cases: drug sensitivity score (DSS) from 5-dose viability curve (DSS (area-based score, 0 = no response)); higher = more sensitive (stronger viability inhibition); extreme values may be limits of the assay
[1] = system: MDCK p60AmotL2-inducible + doxycycline (p60AmotL2 expressing); conditions: doxycycline: 10 ng/mL; 72 h
How it was run: (§1)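 Parental MDCK cells and MDCK cells with a doxycycline-inducible transgene were both grown with doxycycline at 10 ng/mL in the medium before plating, then dispensed at 2000 cells/well into 384-well plates pre-spotted with an oncology library of 528 drugs at five doses (1-10,000 nM). After 72 h at 37 °C, CellTiter-Glo luminescence was recorded and scaled on each plate between vehicle and positive controls. This scaled signal served as the viability readout, and drug sensitivity scores were derived from dose-response curve fits in the Breeze pipeline.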

[2] = system: MDCK wild-type + doxycycline; conditions: doxycycline: 10 ng/mL; 72 h
How it was run: as §1

[3] = system: MDCK wild-type - doxycycline; conditions: doxycycline: none; 72 h
How it was run: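 Parental MDCK cells without doxycycline were dispensed at 2000 cells/well onto pre-spotted 384-well plates. The plates held an oncology library of 528 drugs at five doses (1-10,000 nM) and were incubated 72 h at 37 °C. Viability was read as CellTiter-Glo luminescence and scaled per plate between vehicle and positive controls. Drug sensitivity scores came from dose-response curve fits in the Breeze pipeline.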

Row | SMILES | drug sensitivity score [1] | drug sensitivity score [2] | drug sensitivity score [3]
1 | CC[C@H](Nc1ncnc2[nH]cnc12)c1nc2cccc(F)c2c(=O)n1-c1ccccc1 [Idelalisib] | 0.7 | 0 | 0
2 | O=C(CCCCCCC(=O)Nc1ccc([C@H]2O[C@@H](CSc3nc(-c4ccccc4)c(-c4ccccc4)o3)C[C@@H](c3ccc(CO)cc3)O2)cc1)NO [Tubacin] | 0 | 0 | 0
3 | O=C1CN2Cc3c(ccc(Cl)c3Cl)N=C2N1 [Anagrelide] | 0 | 0 | 0
4 | Cc1cc(Nc2cc(N3CCN(C)CC3)nc(/C=C/c3ccccc3)n2)n[nH]1 [ENMD-2076] | 10.7 | 8.5 | 6.5
5 | COc1cc(OC)c(/C=C/S(=O)(=O)Cc2ccc(OC)c(NCC(=O)O)c2)c(OC)c1 [Rigosertib] | 26.8 | 26.5 | 24
6 | N#CC1(c2ccc(NC(=O)c3cccnc3NCc3ccncc3)cc2)CCCC1 [Apatinib] | 0 | 2.7 | 0
7 | CC/C(=C(\c1ccccc1)c1ccc(OCCN(C)C)cc1)c1ccccc1 [Tamoxifen] | 1 | 0 | 0
8 | CC(C)C[C@H](NC(=O)[C@H](CCc1ccccc1)NC(=O)CN1CCOCC1)C(=O)N[C@@H](Cc1ccccc1)C(=O)N[C@@H](CC(C)C)C(=O)[C@@]1(C)CO1 [Carfilzomib] | 25.7 | 24.6 | 21.2
9 | C[C@H]1O[C@@H](O[C@H]2[C@@H](O)C[C@H](O[C@H]3[C@@H](O)C[C@H](O[C@H]4CC[C@@]5(C)[C@H](CC[C@@H]6[C@@H]5C[C@@H](O)[C@]5(C)[C@@H](C7=CC(=O)OC7)CC[C@]65O)C4)O[C@@H]3C)O[C@@H]2C)C[C@H](O)[C@@H]1O [Digoxin] | 5.3 | 11.2 | 6
10 | COc1ccc(-c2ccc3c(N4CCOC[C@@H]4C)nc(N4CCOC[C@@H]4C)nc3n2)cc1CO [AZD8055] | 22.5 | 17.8 | 14.9
11 | Cc1sc2c(c1C)C(c1ccc(Cl)cc1)=N[C@@H](CC(=O)Nc1ccc(OCCOCCOCCOCCNc3cccc4c3C(=O)N(C3CCC(=O)NC3=O)C4=O)cc1)c1nnc(C)n1-2 (stereo partly specified) [ARV-825] | 11.2 | 7.3 | 5.5
12 | COc1cc2c(cc1OCCCN1CCCC1)N=C(N)C21CCC1 [A-366] | 0 | 0 | 0
13 | CC[C@@H](C(=O)[C@@H](C)[C@@H](O)[C@H](C)[C@@H]1O[C@@H]([C@@H](CC)C(=O)O)CC[C@@H]1C)[C@H]1O[C@]2(C=C[C@@H](O)[C@]3(CC[C@@](C)([C@H]4CC[C@](O)(CC)[C@H](C)O4)O3)O2)[C@H](C)C[C@@H]1C [Salinomycin] | 18.7 | 0.9 | 0.4
14 | CC(C)Oc1ccc(-c2nn([C@@H](C)c3oc4ccc(F)cc4c(=O)c3-c3cccc(F)c3)c3ncnc(N)c23)cc1F [TGR-1202] | 3.9 | 2.1 | 0
15 | CCc1cc2c(cc1N1CCC(N3CCOCC3)CC1)C(C)(C)c1[nH]c3cc(C#N)ccc3c1C2=O [Alectinib] | 0 | 0 | 0
16 | COc1cc(Nc2ncc(F)c(Nc3ccc4c(n3)NC(=O)C(C)(C)O4)n2)cc(OC)c1OC [Tamatinib] | 1.6 | 0 | 0

Row | SMILES | drug sensitivity score [1] | drug sensitivity score [2] | drug sensitivity score [3]
17 | Cc1cc(C)c(CNC(=O)c2cc(-c3ccc(CN4CCOCC4)cc3)cc3c2cnn3C2CCCC2)c(=O)[nH]1 [EPZ-5687] | 0 | 0 | 0
18 | CCN(CC)CCCC(C)Nc1ccnc2cc(Cl)ccc12 (stereo unspecified) [Chloroquine] | 5.2 | 4.5 | 5.1
19 | C=CC(=O)N1CCC(Oc2cc3c(Nc4ccc(Cl)c(Cl)c4F)ncnc3cc2OC)CC1 [Poziotinib] | 27.9 | 14.3 | 9.2
20 | CN1CCN(c2ccc3nc(-c4c(N)c5c(F)cccc5[nH]c4=O)[nH]c3c2)CC1 [Dovitinib] | 0 | 2.5 | 0
21 | Cn1nccc1Nc1nccc(-c2ccn([C@H](CO)c3ccc(Cl)c(F)c3)c(=O)c2)n1 [Ravoxertinib] | 0.2 | 0 | 0
22 | C[C@]1(O)C[C@@H](c2nc(-c3ccc4ccc(-c5ccccc5)nc4c3)c3c(N)nccn32)C1 [Linsitinib] | 0 | 0 | 0
23 | COC(=O)c1ccc2c(c1)NC(=O)/C2=C(\Nc1ccc(N(C)C(=O)CN2CCN(C)CC2)cc1)c1ccccc1 [Nintedanib] | 8.3 | 1.3 | 0.3
24 | CCOCc1nc2c(N)nc3ccccc3c2n1CC(C)(C)O [Resiquimod] | 0 | 0 | 0
25 | O=C(O)CC1CC(c2ccccc2)=NO1 (stereo unspecified) [VGX-1027] | 0 | 0 | 0
26 | CC(C)N(CCCNC(=O)Nc1ccc(C(C)(C)C)cc1)C[C@H]1O[C@@H](n2cc(Br)c3c(N)ncnc32)[C@H](O)[C@@H]1O [SGC0946] | 0 | 0 | 0
27 | COC[C@H](NC(=O)c1cnc(C)s1)C(=O)N[C@@H](COC)C(=O)N[C@@H](Cc1ccccc1)C(=O)[C@@]1(C)CO1 [Oprozomib] | 17.4 | 17.6 | 17.9
28 | CN1CC[C@@H](NC(=O)Nc2ccc(C#N)cc2)C[C@@H]1c1nc2ccccc2[nH]1 [Glasdegib] | 0 | 0 | 0
29 | CCS(=O)(=O)c1cccc(-c2cc(C(=O)NC3CCN(C)CC3)c(C)c3[nH]c4ncc(C)cc4c23)c1 [TAK-901] | 1.8 | 0.7 | 0
30 | COc1c(OCCCN2CCOCC2)ccc2c1N=C(NC(=O)c1cnc(N)nc1)N1CCN=C21 [Copanlisib] | 10.9 | 6.2 | 5.8
31 | CC(C)(O)CC(=O)NCCn1ccc2ncnc(Nc3ccc(Oc4cccc(C(F)(F)F)c4)c(Cl)c3)c21 [TAK-285] | 6.4 | 3.1 | 1.8
32 | CO[C@H](C(=O)[C@@H](O)[C@@H](C)O)[C@@H]1Cc2cc3cc(O[C@H]4C[C@@H](O[C@@H]5C[C@@H](O)[C@H](O)[C@@H](C)O5)[C@H](O)[C@@H](C)O4)c(C)c(O)c3c(O)c2C(=O)[C@H]1O[C@H]1C[C@@H](O[C@@H]2C[C@@H](O)[C@@H](O[C@@H]3C[C@](C)(O)[C@H](O)[C@@H](C)O3)[C@@H](C)O2)[C@H](O)[C@@H](C)O1 [Plicamycin] | 14.1 | 11.3 | 10.4
